{
  "source": "patent US11731977B2",
  "about": "“SGC stimulators” (Cyclerion Therapeutics, Inc., priority 2016, dated 2023)",
  "data": [
    {"target": "T1, sGC enzyme (Homo sapiens, UniProt Q02108+Q02153)", "T1 construct": "sGC enzyme activity values in HEK cells, determined by the GloSensor assay; host or cells: HEK293 cells stably expressing GloSensor 40F cGMP biosensor", "T1 sequence (Q02153 1-619)": "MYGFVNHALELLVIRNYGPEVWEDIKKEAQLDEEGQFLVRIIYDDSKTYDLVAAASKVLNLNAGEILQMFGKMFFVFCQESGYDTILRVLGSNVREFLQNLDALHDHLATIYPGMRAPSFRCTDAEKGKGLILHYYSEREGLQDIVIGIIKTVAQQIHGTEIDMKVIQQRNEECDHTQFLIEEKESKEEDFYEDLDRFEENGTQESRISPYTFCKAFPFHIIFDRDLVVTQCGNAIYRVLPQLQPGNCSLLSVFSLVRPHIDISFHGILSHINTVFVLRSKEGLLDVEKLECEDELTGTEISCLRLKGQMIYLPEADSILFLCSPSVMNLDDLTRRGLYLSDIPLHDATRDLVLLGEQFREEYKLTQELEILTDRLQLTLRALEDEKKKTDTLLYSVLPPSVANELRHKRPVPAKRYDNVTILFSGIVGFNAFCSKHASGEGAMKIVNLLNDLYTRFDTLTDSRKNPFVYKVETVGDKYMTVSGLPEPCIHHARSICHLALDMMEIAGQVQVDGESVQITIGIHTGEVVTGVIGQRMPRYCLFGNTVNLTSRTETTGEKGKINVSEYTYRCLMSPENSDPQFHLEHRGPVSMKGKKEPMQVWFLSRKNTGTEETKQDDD", "T1 sequence (Q02108 1-690)": "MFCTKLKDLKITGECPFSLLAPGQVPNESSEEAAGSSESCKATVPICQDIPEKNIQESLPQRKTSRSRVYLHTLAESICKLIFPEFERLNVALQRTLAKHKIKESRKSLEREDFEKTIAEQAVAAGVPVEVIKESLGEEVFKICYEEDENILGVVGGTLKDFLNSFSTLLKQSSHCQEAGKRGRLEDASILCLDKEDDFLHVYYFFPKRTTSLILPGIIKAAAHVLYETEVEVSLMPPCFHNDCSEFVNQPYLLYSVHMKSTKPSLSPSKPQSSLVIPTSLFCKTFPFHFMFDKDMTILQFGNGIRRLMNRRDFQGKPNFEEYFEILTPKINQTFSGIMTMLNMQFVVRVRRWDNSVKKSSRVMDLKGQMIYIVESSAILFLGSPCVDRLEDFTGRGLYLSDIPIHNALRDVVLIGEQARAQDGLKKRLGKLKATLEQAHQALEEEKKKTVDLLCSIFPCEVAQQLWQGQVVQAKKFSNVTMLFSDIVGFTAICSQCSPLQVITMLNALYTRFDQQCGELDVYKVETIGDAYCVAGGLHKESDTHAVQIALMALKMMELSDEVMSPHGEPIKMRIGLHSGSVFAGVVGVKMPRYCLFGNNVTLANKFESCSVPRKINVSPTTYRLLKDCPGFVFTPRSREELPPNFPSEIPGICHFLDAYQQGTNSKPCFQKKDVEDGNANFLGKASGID", "assay": "cGMP GloSensor cell-based assay, 384-well format (Example 2a)", "conditions": "HEK293 GloSensor 40F cGMP cells; 10 μM DETA-NONOate; 50% of high control (30 μM Compound Y); read-out: Abs EC50", "excerpt": "Human embryonic kidney cells (HEK293) cells expressing GloSensor™ 40F cGMP (Part No: CS182801, Promega) were used to evaluate the activity of test compounds. The luminescent biosensors (engineered luciferase) that were incorporated into these cells detect cGMP formed by the compounds stimulating the sGC enzyme and emit luminescence.\ncGMP GloSensor cells were maintained in Dulbecco's Modification of Eagle's Medium (DMEM) supplemented with fetal bovine serum (FBS, 10% final) and hygromycine (200 ug/ml). The day before assay, cells were plated in DMEM with 10% FBS in a 50 μL volume at a density of 1.5×10^4 cells/well in a poly-D-lysine coated 384-well flat white-bottom plate (Corning Cat No 35661). Cells were incubated overnight at 37° C. in a humidified chamber with 5% CO2. The next day, medium was removed and cells were replaced with 40 ul/well of GloSensor™, 2 mM (Promega Cat No E1291). Cells were treated for 90 minutes at 25° C. to allow the substrate to equilibrate in the cells. Test compounds and Diethylenetriamine NONOate (DETA-NONOate, or DETA-NO) was diluted to 3 mM (20×) in serum-free CO2 independent medium and serially diluted at 4× dilutions to create 5× dose curve from which 10 ul was added to the wells (x μM concentration for test compound solution and 10 μM concentration for DETA-NONOate solution; wherein x is one of the following final concentrations: 30000 nM, 7500 nM, 1875 nM, 468.8 nM, 117.2 nM, 29.29 nM, 7.320 nM, 1.830 nM, 0.460 nM, 0.114 nM, and 0.029 nM).\nFor the kinetics studies, luminescense was measured right away for 0.2 sec per well with Envision (Perkin Elmer). For endpoint SAR screening, data were collected after 55 min incubation at room temperature.\nData were normalized to a high control using the following equation: 100*(Sample−Low Control)/(High Control−Low Control), where the low control is the average of 16 samples treated with 1% DMSO, and the high control is the average of 16 samples treated with 30 μM of Compound Y depicted below. Data were fit using a 4-parameter fit (log(agonist) vs. response—variable slope) using GraphPad Prism Software v.5. n=2 for all compounds. The Absolute (Abs) EC50 was interpolated from the curve fit and is defined as the concentration at which a given compound elicits 50% of the high control response after data normalization as indicated above. Compounds failing to elicit a minimum response of 50% are reported as >30 μM or ND. For compounds run in duplicate or n higher than 2, the result herein given is the geometric mean of the several results obtained.", "units": {"EC50": "nM"}, "values": [
      {"smiles": "Fc1ccccc1Cc1nc(-c2nc(C3CC3(F)F)n[nH]2)cn2ccnc12", "note": "(racemic) [Compound I-64, rac-6-(3-(2,2-Difluorocyclopropyl)-1H-1,2,4-triazol-5-yl)-8-(2-fluorobenzyl)imidazo[1,2-a]pyrazine]", "EC50": "100 to 1000"},
      {"smiles": "Cc1n[nH]c(-c2cn3ccnc3c(Cc3ccccc3F)n2)n1", "note": "[Compound I-4, 8-(2-fluorobenzyl)-6-(3-methyl-1H-1,2,4-triazol-5-yl)imidazo[1,2-a]pyrazine]", "EC50": "100 to 1000"},
      {"smiles": "Fc1cccc(Cc2nc(-c3nc(C(F)F)n[nH]3)cn3ncnc23)c1F", "note": "[Compound I-17, 8-(2,3-Difluorobenzyl)-6-(3-(difluoromethyl)-1H-1,2,4-triazol-5-yl)-[1,2,4]triazolo[1,5-a]pyrazine]", "EC50": "≤ 100"},
      {"smiles": "Fc1cccc(Cc2nc(-c3nc(C(F)(F)F)n[nH]3)cn3ncnc23)c1F", "note": "[Compound I-18, 8-(2,3-Difluorobenzyl)-6-(3-(trifluoromethyl)-1H-1,2,4-triazol-5-yl)-[1,2,4]triazolo[1,5-a]pyrazine]", "EC50": "≤ 100"},
      {"smiles": "Fc1cccc(F)c1Cc1nc(-c2nc(C(F)(F)F)n[nH]2)cn2ccnc12", "note": "[Compound I-19, 8-(2,6-Difluorobenzyl)-6-(3-(trifluoromethyl)-1H-1,2,4-triazol-5-yl)imidazo[1,2-a]pyrazine]", "EC50": "> 1000"},
      {"smiles": "Fc1cccc(F)c1Cc1nc(-c2nc(C(F)F)n[nH]2)cn2ccnc12", "note": "[Compound I-20, 8-(2,6-Difluorobenzyl)-6-(3-(difluoromethyl)-1H-1,2,4-triazol-5-yl)imidazo[1,2-a]pyrazine]", "EC50": "> 1000"},
      {"smiles": "Fc1cccc(Cc2nc(-c3nc(C(F)F)n[nH]3)cn3ncnc23)c1", "note": "[Compound I-21, 6-(3-(Difluoromethyl)-1H-1,2,4-triazol-5-yl)-8-(3-fluorobenzyl)-[1,2,4]triazolo[1,5-a]pyrazine]", "EC50": "≤ 100"},
      {"smiles": "Fc1cccc(Cc2nc(-c3nc(C(F)(F)F)n[nH]3)cn3ncnc23)c1", "note": "[Compound I-22, 8-(3-Fluorobenzyl)-6-(3-(trifluoromethyl)-1H-1,2,4-triazol-5-yl)-[1,2,4]triazolo[1,5-a]pyrazine]", "EC50": "≤ 100"},
      {"smiles": "Fc1ccc(F)c(Cc2nc(-c3nc(C(F)F)n[nH]3)cn3ncnc23)c1", "note": "[Compound I-23, 8-(2,5-Difluorobenzyl)-6-(3-(difluoromethyl)-1H-1,2,4-triazol-5-yl)-[1,2,4]triazolo[1,5-a]pyrazine]", "EC50": "≤ 100"},
      {"smiles": "Fc1cc(F)cc(Cc2nc(-c3nc(C(F)(F)F)n[nH]3)cn3ncnc23)c1", "note": "[Compound I-24, 8-(3,5-Difluorobenzyl)-6-(3-(trifluoromethyl)-1H-1,2,4-triazol-5-yl)-[1,2,4]triazolo[1,5-a]pyrazine]", "EC50": "≤ 100"},
      {"smiles": "Fc1cc(F)cc(Cc2nc(-c3nc(C(F)F)n[nH]3)cn3ncnc23)c1", "note": "[Compound I-25, 8-(3,5-Difluorobenzyl)-6-(3-(difluoromethyl)-1H-1,2,4-triazol-5-yl)-[1,2,4]triazolo[1,5-a]pyrazine]", "EC50": "≤ 100"},
      {"smiles": "Fc1ccccc1Cc1nc(-c2nc(C(F)F)n[nH]2)cn2ncnc12", "note": "[Compound I-26, 6-(3-(Difluoromethyl)-1H-1,2,4-triazol-5-yl)-8-(2-fluorobenzyl)-[1,2,4]triazolo[1,5-a]pyrazine]", "EC50": "≤ 100"},
      {"smiles": "Fc1cc(F)cc(Cc2nc(-c3nc(C(F)(F)F)n[nH]3)cn3ccnc23)c1", "note": "[Compound I-29, 8-(3,5-Difluorobenzyl)-6-(3-(trifluoromethyl)-1H-1,2,4-triazol-5-yl)imidazo[1,2-a]pyrazine]", "EC50": "≤ 100"},
      {"smiles": "Fc1cc(F)cc(Cc2nc(-c3nc(C(F)F)n[nH]3)cn3ccnc23)c1", "note": "[Compound I-30, 8-(3,5-Difluorobenzyl)-6-(3-(difluoromethyl)-1H-1,2,4-triazol-5-yl)imidazo[1,2-a]pyrazine]", "EC50": "≤ 100"},
      {"smiles": "Cc1cn2cc(-c3nc(C(F)(F)F)n[nH]3)nc(Cc3ccccc3F)c2n1", "note": "[Compound I-31, 8-(2-Fluorobenzyl)-2-methyl-6-(3-(trifluoromethyl)-1H-1,2,4-triazol-5-yl)imidazo[1,2-a]pyrazine]", "EC50": "100 to 1000"},
      {"smiles": "Cc1cn2cc(-c3nc(C(F)F)n[nH]3)nc(Cc3ccccc3F)c2n1", "note": "[Compound I-32, 6-(3-(Difluoromethyl)-1H-1,2,4-triazol-5-yl)-8-(2-fluorobenzyl)-2-methylimidazo[1,2-a]pyrazine]", "EC50": "> 1000"},
      {"smiles": "Fc1ccc(F)c(Cc2nc(-c3nc(C(F)(F)F)n[nH]3)cn3ncnc23)c1", "note": "[Compound I-33, 8-(2,5-Difluorobenzyl)-6-(3-(trifluoromethyl)-1H-1,2,4-triazol-5-yl)-[1,2,4]triazolo[1,5-a]pyrazine]", "EC50": "≤ 100"},
      {"smiles": "Cc1c(F)cc(Cc2nc(-c3nc(C(F)(F)F)n[nH]3)cn3ccnc23)cc1F", "note": "[Compound I-34, 8-(3,5-Difluoro-4-methylbenzyl)-6-(3-(trifluoromethyl)-1H-1,2,4-triazol-5-yl)imidazo[1,2-a]pyrazine]", "EC50": "≤ 100"},
      {"smiles": "Cc1c(F)cc(Cc2nc(-c3nc(C(F)F)n[nH]3)cn3ccnc23)cc1F", "note": "[Compound I-35, 8-(3,5-Difluoro-4-methylbenzyl)-6-(3-(difluoromethyl)-1H-1,2,4-triazol-5-yl)imidazo[1,2-a]pyrazine]", "EC50": "≤ 100"},
      {"smiles": "Cn1cnc2c(Cc3ccccc3F)nc(-c3nc(C(F)(F)F)n[nH]3)cc21", "note": "[Compound I-36, 4-(2-Fluorobenzyl)-1-methyl-6-(3-(trifluoromethyl)-1H-1,2,4-triazol-5-yl)-1H-imidazo[4,5-c]pyridine]", "EC50": "> 1000"},
      {"smiles": "Cn1cnc2c(Cc3ccccc3F)nc(-c3nc(C(F)(F)F)n[nH]3)nc21", "note": "[Compound I-37, 6-(2-Fluorobenzyl)-9-methyl-2-(3-(trifluoromethyl)-1H-1,2,4-triazol-5-yl)-9H-purine]", "EC50": "> 1000"},
      {"smiles": "Cc1nc(-c2cn3ccnc3c(Cc3ccccc3F)n2)nn1CC(F)(F)F", "note": "[Compound I-38, 8-(2-fluorobenzyl)-6-(5-methyl-1-(2,2,2-trifluoroethyl)-1H-1,2,4-triazol-3-yl)imidazo[1,2-a]pyrazine]", "EC50": "≤ 100"},
      {"smiles": "Cc1nc(-c2cn3ccnc3c(Cc3ccccc3F)n2)nn1Cc1ccc(F)cc1", "note": "[Compound I-41, 8-(2-Fluorobenzyl)-6-(1-(4-fluorobenzyl)-5-methyl-1H-1,2,4-triazol-3-yl)imidazo[1,2-a]pyrazine]", "EC50": "≤ 100"}
    ]}
  ]
}
